Assays:
[1] = HLM stability (High Activity); type: in vitro ADME; details: both sexes, human, liver microsomes, pH 7.4, Condition 2 (High Activity), 1.0 mg protein/mL
Protocol: (§1) HLM Stability (High Activity). Pooled HLM from adult male and female donors (XenoTech H0630) were used. Microsomal incubations were carried out in 96-well plates in 5 aliquots of 40 μL, each (one for each time point). Liver microsomal incubation medium consisted of PBS (100 mM, pH 7.4), MgCl2 (3.3 mM), NADPH (3 mM), glucose-6-phosphate (5.3 mM), and glucose-6-phosphate dehydrogenase (0.67 units/mL), with 1.0 mg of liver microsomal protein per mL. Control incubations were performed by replacing the NADPH-cofactor system with PBS. Test compounds (1 μM, final solvent concentration 1.6%) were incubated with microsomes at 37° C., shaking at 100 rpm. Incubations were performed in duplicate. Five time points over 60 minutes were analyzed. The reactions were stopped by adding 12 volumes of 90% acetonitrile-water to incubation aliquots, followed by protein sedimentation by centrifugation at 5500 rpm for 3 minutes. Supernatants were analyzed for parent compound remaining using a fit-for-purpose liquid chromatography-tandem mass spectrometry (LC-MS/MS) method, with authentic samples of each analyte used for identity confirmation.
(§2) Data Analysis. The elimination constant (kel), half-life (t1/2) and intrinsic clearance (Clint) were determined in a plot of […] versus time, using linear regression analysis.

[2] = MLM stability (High Activity); type: in vitro ADME, BALB/c mice; details: male, BALB/c, mouse, liver microsomes, pH 7.4, Condition 2 (High Activity), 1.0 mg protein/mL
Protocol: as §1, with “MLM” for “HLM”, “from” for “from adult”, “BALB/c mice” for “and female donors”, “M3000)” for “H0630)”, “μL” for “μL,”, “9” for “12”
as §2

[3] = molecular target: MK-801 binding site of the N-methyl-D-aspartate receptor (NMDAR); test: NMDAR radioligand binding with [3H]MK-801, Method B; design: species or system Sprague Dawley rat; details: MK-801 site, Method B, male Sprague Dawley rat cortex, 5.0 nM [3H]MK-801; read-out: NMDAR Ki ± SEM
Protocol: Radioligand Binding—Method B. Affinity of the test compounds for NMDAR was determined in radioligand binding experiments with [^3H]MK-801 by WuXi AppTec (Hong Kong) Limited, under the conditions described in Table 13.

[4] = molecular target: T1, serotonin transporter (SERT) (Homo sapiens, UniProt P31645); test: Fluorescent substrate uptake inhibition, SERT; type: cell-based; details: 10 μM, HEK293 cells expressing SERT
T1 construct: expressed in transfected cells; host or cells: HEK293
T1 sequence (P31645 whole entry, species assumed): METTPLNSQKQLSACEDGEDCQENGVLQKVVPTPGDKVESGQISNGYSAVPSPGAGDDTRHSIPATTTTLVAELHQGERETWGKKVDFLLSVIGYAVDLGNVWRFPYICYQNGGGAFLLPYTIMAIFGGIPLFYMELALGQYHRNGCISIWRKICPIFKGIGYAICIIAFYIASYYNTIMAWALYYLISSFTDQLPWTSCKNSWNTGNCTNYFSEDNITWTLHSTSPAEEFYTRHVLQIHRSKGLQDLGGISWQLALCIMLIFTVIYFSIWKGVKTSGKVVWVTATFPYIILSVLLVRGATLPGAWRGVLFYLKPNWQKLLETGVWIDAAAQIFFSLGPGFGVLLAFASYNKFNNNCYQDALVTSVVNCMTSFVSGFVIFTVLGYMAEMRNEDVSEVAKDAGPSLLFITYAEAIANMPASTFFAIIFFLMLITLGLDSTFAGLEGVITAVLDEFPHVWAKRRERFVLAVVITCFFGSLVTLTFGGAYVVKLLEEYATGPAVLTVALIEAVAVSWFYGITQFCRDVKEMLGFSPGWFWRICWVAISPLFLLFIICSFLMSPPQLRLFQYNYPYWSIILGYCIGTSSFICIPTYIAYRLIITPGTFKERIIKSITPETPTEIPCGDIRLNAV
Protocol: (§3) Uptake Inhibition. The ability of test compounds to block monoamine uptake by SERT, NET, DAT, and VMAT2 was determined using the Neurotransmitter Transporter Uptake Assay Kit manufactured by Molecular Devices (Cat #R8173). Briefly, stably transfected cells expressing the MAT of interest (HEK293 cells for SERT and NET; CHO cells for DAT) were grown and plated into 384-well plates at a concentration of 20,000 cells per well. Plates were then incubated for 16-20 h at 37° C. and 5% CO2. The medium was then aspirated and replaced with 25 μL of assay buffer (20 mM HEPES in HBSS, containing 0.1% BSA) containing the test compounds at the appropriate concentrations. Plates were then centrifuged at 300 rpm for 15 s and then incubated at 37° C. for 30 minutes. At this time, 25 μL of the proprietary fluorescent dye solution was added, the plates were incubated at 37° C. for 60 minutes, and then fluorescence was quantified on a plate reader (excitation wavelength=440 nm, emission wavelength=520 nm). The proprietary dye solution contains a mixture of 1) a fluorescent dye that mimics the endogenous substrates of MATs and is thereby actively transported to the intracellular compartment in the absence of an inhibitor and 2) a masking dye that inhibits the fluorescence of dye 1 in the extracellular compartment. Therefore, the overall fluorescence of the system increases as the fluorescent dye is transported into the cells.

[5] = molecular target: T2, norepinephrine transporter (NET) (Homo sapiens, UniProt P23975); test: Fluorescent substrate uptake inhibition, NET; type: cell-based; details: 10 μM, HEK293 cells expressing NET
T2 construct: expressed in transfected cells; host or cells: HEK293
T2 sequence (P23975 whole entry, species assumed): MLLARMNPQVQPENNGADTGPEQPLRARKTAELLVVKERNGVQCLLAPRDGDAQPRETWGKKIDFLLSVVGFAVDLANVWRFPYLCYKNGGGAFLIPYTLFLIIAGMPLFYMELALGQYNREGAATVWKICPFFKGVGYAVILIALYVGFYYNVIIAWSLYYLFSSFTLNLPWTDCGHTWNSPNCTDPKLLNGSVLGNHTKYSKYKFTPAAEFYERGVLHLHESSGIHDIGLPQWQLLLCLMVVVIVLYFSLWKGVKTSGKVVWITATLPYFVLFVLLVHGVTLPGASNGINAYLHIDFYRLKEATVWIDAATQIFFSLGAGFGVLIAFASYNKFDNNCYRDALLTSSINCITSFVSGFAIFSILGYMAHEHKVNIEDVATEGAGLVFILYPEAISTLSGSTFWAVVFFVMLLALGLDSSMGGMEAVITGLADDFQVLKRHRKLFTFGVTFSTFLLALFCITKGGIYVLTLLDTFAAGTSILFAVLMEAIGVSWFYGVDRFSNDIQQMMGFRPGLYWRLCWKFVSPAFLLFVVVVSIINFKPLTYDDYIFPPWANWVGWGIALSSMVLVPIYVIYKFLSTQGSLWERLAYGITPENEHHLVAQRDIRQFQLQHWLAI
Protocol: as §3

[6] = molecular target: T3, dopamine transporter (DAT) (Homo sapiens, UniProt Q01959); test: Fluorescent substrate uptake inhibition, DAT; type: cell-based; details: 10 μM, CHO cells expressing DAT
T3 construct: expressed in transfected cells; host or cells: CHO (uptake)
T3 sequence (Q01959 whole entry, species assumed): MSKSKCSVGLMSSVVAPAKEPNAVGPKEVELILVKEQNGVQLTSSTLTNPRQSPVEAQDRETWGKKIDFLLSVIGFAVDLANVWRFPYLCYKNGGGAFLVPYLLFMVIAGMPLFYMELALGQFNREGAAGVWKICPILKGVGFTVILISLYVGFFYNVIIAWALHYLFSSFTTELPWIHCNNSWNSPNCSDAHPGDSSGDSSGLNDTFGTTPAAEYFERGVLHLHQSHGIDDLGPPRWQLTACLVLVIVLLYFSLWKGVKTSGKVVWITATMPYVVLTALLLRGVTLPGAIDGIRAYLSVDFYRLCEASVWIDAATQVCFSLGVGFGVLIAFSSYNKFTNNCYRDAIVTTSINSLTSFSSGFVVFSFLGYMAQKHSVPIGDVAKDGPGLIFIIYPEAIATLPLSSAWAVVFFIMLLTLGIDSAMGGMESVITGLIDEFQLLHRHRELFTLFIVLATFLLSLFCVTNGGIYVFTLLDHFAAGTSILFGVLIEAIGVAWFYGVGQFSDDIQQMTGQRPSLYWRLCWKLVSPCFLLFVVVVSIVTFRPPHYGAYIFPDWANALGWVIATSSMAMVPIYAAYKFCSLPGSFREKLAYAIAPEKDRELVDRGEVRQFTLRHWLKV
Protocol: as §3

[7] = molecular target: T4, vesicular monoamine transporter 2 (VMAT2) (Homo sapiens, UniProt Q05940); test: Fluorescent substrate uptake inhibition, VMAT2; type: cell-based; details: 10 μM, transfected cells
T4 construct: expressed in transfected cells
T4 sequence (Q05940 whole entry, species assumed): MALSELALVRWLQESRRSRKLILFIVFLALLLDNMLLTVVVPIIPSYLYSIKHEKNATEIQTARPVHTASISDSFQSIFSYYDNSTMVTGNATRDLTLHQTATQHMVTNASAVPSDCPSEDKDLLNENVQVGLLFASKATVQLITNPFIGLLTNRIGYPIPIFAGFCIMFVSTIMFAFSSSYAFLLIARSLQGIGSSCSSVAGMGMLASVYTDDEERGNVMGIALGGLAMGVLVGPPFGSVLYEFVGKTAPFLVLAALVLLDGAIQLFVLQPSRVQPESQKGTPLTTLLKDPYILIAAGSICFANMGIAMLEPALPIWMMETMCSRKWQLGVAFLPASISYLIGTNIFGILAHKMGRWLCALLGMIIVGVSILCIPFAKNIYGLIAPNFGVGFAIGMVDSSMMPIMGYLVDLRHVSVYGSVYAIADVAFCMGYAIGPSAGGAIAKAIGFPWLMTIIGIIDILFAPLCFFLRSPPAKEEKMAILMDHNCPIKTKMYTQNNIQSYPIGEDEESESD
Protocol: as §3

SMILES: O=C1CCCC[C@@]1(NCCO)c1ccccc1 [Compound 30R, (R)-2-((2-hydroxyethyl)amino)-2-phenylcyclohexan-1-one]
- half-life at 1 μM [1]: 23 min
- microsomal CLint at 1 μM [1]: 30 µL/min/mg
- half-life at 1 μM [2]: 6.5 min
- microsomal CLint at 1 μM [2]: 106 µL/min/mg
- Ki [3]: > 23 µM
- inhibition at 10 µM [4]: 1.2%
- inhibition at 10 µM [5]: 3.5%
- inhibition at 10 µM [6]: 8.5%
- inhibition at 10 µM [7]: 16.3%

SMILES: CN[C@]1(c2ccccc2C)CCCCC1=O [Compound 38S, (S)-2-(methylamino)-2-(o-tolyl)cyclohexan-1-one]
- half-life at 1 μM [1]: 110 min
- microsomal CLint at 1 μM [1]: 6 µL/min/mg
- half-life at 1 μM [2]: 22.4 min
- microsomal CLint at 1 μM [2]: 31 µL/min/mg
- Ki [3]: 0.24 µM
- inhibition at 10 µM [4]: 39.7%
- inhibition at 10 µM [5]: 2.7%
- inhibition at 10 µM [6]: 8.3%
- inhibition at 10 µM [7]: -11.2%

SMILES: O=C1CCCC[C@]1(NCCO)c1ccccc1 [Compound 30S, (S)-2-((2-hydroxyethyl)amino)-2-phenylcyclohexan-1-one]
- half-life at 1 μM [1]: 11.4 min
- microsomal CLint at 1 μM [1]: 61 µL/min/mg
- half-life at 1 μM [2]: 4.3 min
- microsomal CLint at 1 μM [2]: 162 µL/min/mg
- Ki [3]: 23 µM
- inhibition at 10 µM [4]: 51.9%
- inhibition at 10 µM [5]: 22.3%
- inhibition at 10 µM [6]: 18.7%
- inhibition at 10 µM [7]: 23.2%

SMILES: O=C1CCCC[C@]1(NCCF)c1ccccc1 [Compound 86S, (S)-2-((2-fluoroethyl)amino)-2-phenylcyclohexan-1-one]
- half-life at 1 μM [1]: 61.9 min
- microsomal CLint at 1 μM [1]: 11 µL/min/mg
- half-life at 1 μM [2]: 8.5 min
- microsomal CLint at 1 μM [2]: 82 µL/min/mg
- Ki [3]: 1.3 µM
- inhibition at 10 µM [4]: 14.1%
- inhibition at 10 µM [5]: 12.2%
- inhibition at 10 µM [6]: 20.8%
- inhibition at 10 µM [7]: -5.5%

SMILES: CN[C@@]1(c2ccccc2C)CCCCC1=O [Compound 38R, (R)-2-(methylamino)-2-(o-tolyl)cyclohexan-1-one]
- half-life at 1 μM [1]: 111 min
- microsomal CLint at 1 μM [1]: 6 µL/min/mg
- half-life at 1 μM [2]: 30 min
- microsomal CLint at 1 μM [2]: 23 µL/min/mg
- Ki [3]: 0.74 µM
- inhibition at 10 µM [4]: 41.5%
- inhibition at 10 µM [5]: 20.3%
- inhibition at 10 µM [6]: -2.2%
- inhibition at 10 µM [7]: 2.9%

SMILES: O=C1CCCC[C@@]1(NCCF)c1ccccc1 [Compound 86R, (R)-2-((2-fluoroethyl)amino)-2-phenylcyclohexan-1-one]
- half-life at 1 μM [1]: 55.8 min
- microsomal CLint at 1 μM [1]: 12 µL/min/mg
- half-life at 1 μM [2]: 6.2 min
- microsomal CLint at 1 μM [2]: 113 µL/min/mg
- Ki [3]: 7.1 µM
- inhibition at 10 µM [4]: 7.1%
- inhibition at 10 µM [5]: 11.4%
- inhibition at 10 µM [6]: 13.6%
- inhibition at 10 µM [7]: -8.9%

From patent publication US11344510B2, “Arylcyclohexylamine derivatives and their use in the treatment of psychiatric disorders” (Gilgamesh Pharmaceuticals, Inc., priority 2019, dated 2022)
